{
  "source": "patent US11266636B2",
  "about": "“Maleate salt of the free base of N-[5-(aminosulfonyl)-4-methyl-1,3-thiazol-2-yl]-N-methyl-2-[4-(2-pyridinyl)-phenyl]-acetamide, pharmaceutical formulations, methods of manufacture and uses thereof for the treatment of herpes viruses” (priority 2016, dated 2022)",
  "key": {"[1]": {"assay": "Relative solubility in simulated gastric and intestinal fluids (FaSSGF, FaSSIF, FeSSIF)", "format": "physicochemical", "conditions": "2 hours; for Relative solubility in FaSSIF: fasted state simulated intestinal fluid, pH 6.5, 37° C.; for Relative solubility in FeSSIF: fed state simulated intestinal fluid, pH 5, 37° C.", "procedure": "The pH was adjusted to 6.5 by addition of 1 N hydrochloric acid.\nThe pH was adjusted to 5 by addition of 1 N hydrochloric acid.\nSuspensions of the mono ethane sulfonate salt, the maleate salt, the mono benzene sulfonate salt, the hemi ethane-1,2-disulfonate, the mesylate salt or the pritelivir free base were prepared as triplicates by weighing approximately 12 mg test item and addition of 600 μL FaSSGF, FaSSIF or FeSSIF (final concentration 20 mg/mL). The suspensions were incubated at 37° C. Aliquots (100 μL) were transferred into centrifugation devices (polyvinylidene difluoride membrane, 0.2 μm) for removal of solid matter (10 minutes at approximately 15000×g and 37° C.) after 0, 0.5, 1 and 2 hours. FaSSGF filtrates were diluted in acetonitrile to a final dilution of 1:1000. FaSSIF filtrates were diluted in acetonitrile to a final dilution of 1:50 and FeSSIF filtrates to a final dilution of 1:100.\nThe samples were analyzed for their content of the free base of pritelivir. […] As hydrolysis products were not determined only relative solubility was used for further evaluations of the results."}, "[2]": {"assay": "Short-term stability in pharmaceutical excipients over two weeks (ambient temperature and 50° C.)", "format": "physicochemical", "conditions": "for Stability in polyethylene glycol (in words): two weeks storage at 50° C.", "procedure": "Additionally, the solubility of the free base of pritelivir and its aforementioned salts in water was determined and the resulting pH was measured. […] For detection, a diode-array detector was used. Absorption was recorded at a wavelength of 300 nm. All calculations were carried out with Microsoft Excel 2010. Mean data are given as arithmetic means. Recoveries were calculated in comparison to the measured start concentration (t0)."}, "[3]": {"assay": "Solubility in water and resulting pH", "format": "physicochemical", "conditions": "for solubility at 22 h: water, thermodynamic from solid", "procedure": "Additionally, the solubility of the free base of pritelivir and its aforementioned salts in water was determined and the resulting pH was measured.\nFor detection, a diode-array detector was used. Absorption was recorded at a wavelength of 300 nm."}, "[4]": {"assay": "Solubility determination in different pharmaceutical excipients at ambient temperature", "conditions": "for solubility at 22 h: thermodynamic from solid", "procedure": "Dimethyl sulfoxide (DMSO) served as control solvent.\nSuspensions were prepared by weighing the test items into glass vials and addition of the appropriate solvent. The suspensions were shortly vortex-mixed and shaken over-head for 22 hours. Aliquots (500 μL) were transferred to filtration devices with polyvinylidene fluoride membranes and the solid matter was separated by centrifugation. The filtrates were diluted (1:100) in acetonitrile/methanol/water/acetic acid (25+25+50+0.5, v+v+v+v).\nControl solutions of all salts were prepared in DMSO at a concentration of 20 mg/mL and treated as described above. The solubility was determined by concentration measurement of the diluted filtrate of the oversaturated solutions.\nChromatographic separation was performed on a Phenomenex Luna C18(2), 5 μm column (150×2 mm) by gradient elution using 1% acetic acid and acetonitrile/methanol (1+1, v+v) containing 1% acetic acid. For detection, a diode-array detector was used. Absorption was recorded at a wavelength of 300 nm. A detailed method description was filed in the raw data folder."}, "[5]": {"test_system": "HSV-2", "conditions": "once daily suppressive therapy; cited from earlier work"}, "[6]": {"assay": "Photostability (xenon lamp, ca. 2000 Wh/m^2, 29 hours, >310 nm), solids and acidic solutions", "format": "physicochemical", "conditions": "0.1 M hydrochloric acid/acetonitrile (75+25)", "procedure": "The compounds were exposed as solids and dissolved in 0.1 M hydrochloric acid/acetonitrile (75+25, v+v) at a target concentration of 0.3 mg/mL. Corresponding dark control samples were prepared and placed in UV-light protected vials in the irradiation chamber to keep the ambient conditions equivalent. Additionally, untreated solids were dissolved and analyzed as reference samples. Two samples were prepared from each solid test item. Approximately 20 mg of each test item (corrected for free base) was weighed into quartz glass vials. A second aliquot was weighed into light protected glass vials (dark control). Both samples were placed inside the irradiation chamber. […] Two aliquots were prepared (irradiated and dark control sample). The dark control samples were stored inside the irradiation chamber in closed and light protected glass vials, while the photostressed solutions were stored in quartz flasks, equipped only with a loose quartz glass cover. During irradiation, the samples were partially evaporated due to heat production inside the irradiation chamber. The extent of evaporation was variable from sample to sample (the sulphate salt of pritelivir free base was almost completely evaporated). […] The samples (solutions and solid state) were irradiated with a xenon lamp at […] through a glass filter for 29 hours (total applied dose of UV-light ca. 2000 Wh/m^2). The instrument used was a Suntest CPS+ (Atlas). By the use of the glass filter, only wavelengths >310 nm were irradiated, leading to simulation of the ID65 standard (indoor indirect daylight standard). […] The recorded average chamber heat temperature was 38° C. […] The % peak area was determined for the pritelivir free base in all tested samples. […] Absorption was recorded at a wavelength of 280 nm. […] The degree of decomposition was determined by chromatographic separation of (UV-active) degradation products and by determination of the respective percentage of the total peak area (% total peak area) per chromatogram. As salts dissociate in solution, the peak area of the pritelivir free base was determined in all samples."}, "[7]": {"test_system": "herpes simplex virus-2", "conditions": "comparison of literature values; cited from earlier work"}, "[8]": {"conditions": "propylene glycol, organic solvent or mixture, Solubility in propylene glycol (PG), ambient temperature"}, "[9]": {"conditions": "30% Captisol, aqueous with cosolvent or surfactant or cyclodextrin, Solubility in 30% Captisol, ambient temperature, 22 hours shaking"}, "[10]": {"conditions": "30% hydroxypropyl-β-cyclodextrin (HP-beta CD), aqueous with cosolvent or surfactant or cyclodextrin, Solubility in 30% HP-beta CD, 30% Hydroxypropyl-β-cyclodextrin, ambient temperature"}, "[11]": {"conditions": "polyethylene glycol (PEG 400), organic solvent or mixture, Solubility in polyethylene glycol (PEG 400), PEG 400, ambient temperature"}},
  "data": [
    {"compound": "Cc1nc(N(C)C(=O)Cc2ccc(-c3ccccn3)cc2)sc1S(N)(=O)=O.O=S(=O)(O)c1ccccc1", "note": "[mono benzene sulfonate salt, N-methyl-N-(4-methyl-5-sulfamoylthiazol-2-VI)-2-(4-(pyridin-2-yl)phenyl)acetamide benzenesulfonate]", "values": [
      {"measurement": "Relative solubility in FaSSIF", "setting": "[1]", "result": "essentially similar concentrations"},
      {"measurement": "Relative solubility in FeSSIF", "setting": "[1]", "result": "essentially similar concentrations"},
      {"measurement": "Stability in polyethylene glycol (in words)", "setting": "[2]", "result": "showed stability"}
    ]},
    {"compound": "CCS(=O)(=O)O.Cc1nc(N(C)C(=O)Cc2ccc(-c3ccccn3)cc2)sc1S(N)(=O)=O", "note": "[mono ethane sulfonate salt, N-methyl-N-(4-methyl-5-sulfamoylthiazol-2-yl)-2-(4-(pyridin-2-yl)phenyl)acetamide ethanesulfonate]", "values": [
      {"measurement": "solubility at 22 h", "setting": "[3]", "result": "175 to 606", "unit": "µg/mL"},
      {"measurement": "Relative solubility in FaSSGF", "setting": "[1]; fasted state simulated gastric fluid, pH 1.6, 37° C.", "result": "highest relative solubility"},
      {"measurement": "Relative solubility in FaSSIF", "setting": "[1]", "result": "highest relative solubility"},
      {"measurement": "Relative solubility in FeSSIF", "setting": "[1]", "result": "highest relative solubility"},
      {"measurement": "solubility at 22 h", "setting": "[4]; [8]", "result": "5000 to 6000", "unit": "µg/mL"}
    ]},
    {"compound": "Cc1nc(N(C)C(=O)Cc2ccc(-c3ccccn3)cc2)sc1S(N)(=O)=O", "note": "[free base of pritelivir, N-[5-(aminosulfonyl)-4-methyl-1,3-thiazol-2-yl]-N-methyl-2-[4-(2-pyridinyl)-phenyl]-acetamide]", "values": [
      {"measurement": "solubility at 22 h", "setting": "[3]", "result": 1.3, "unit": "µg/mL"},
      {"measurement": "Stability in ethanol, PEG and propylene glycol", "setting": "[2]; two weeks, ambient temperature", "result": "slight decrease"},
      {"measurement": "solubility at 22 h", "setting": "[4]; [9]", "result": 1790, "unit": "µg/mL"},
      {"measurement": "solubility at 22 h", "setting": "[4]; [10]", "result": 1910, "unit": "µg/mL"},
      {"measurement": "solubility at 22 h", "setting": "[4]; [11]", "result": 89600, "unit": "µg/mL"}
    ]},
    {"compound": "CC(C)[C@H](N)C(=O)OCCOCn1cnc2c(=O)[nH]c(N)nc21", "note": "[valacyclovir]", "values": [
      {"measurement": "Risk of transmission of genital herpes", "setting": "[5]", "result": "significantly reduces the risk of transmission"}
    ]},
    {"compound": "Cc1nc(N(C)C(=O)Cc2ccc(-c3ccccn3)cc2)sc1S(N)(=O)=O.O=C(O)/C=C\\C(=O)O", "note": "[maleate salt, maleate salt of the free base of N-[5-(amino-sulfonyl)-4-methyl-1,3-thiazol-2-yl]-N-methyl-2-[4-(2-pyridinyl)phenyl]acetamide]", "values": [
      {"measurement": "% total peak area of the free base of pritelivir, irradiated solutions", "setting": "[6]; 29 hours, total dose 2000 Wh/m^2", "result": 71.5, "unit": "%"},
      {"measurement": "Solubility in water", "setting": "[3]", "result": 480, "unit": "µg/mL"},
      {"measurement": "Relative solubility in FaSSIF", "setting": "[1]", "result": "essentially similar concentrations"},
      {"measurement": "Relative solubility in FeSSIF", "setting": "[1]", "result": "essentially similar concentrations"},
      {"measurement": "solubility at 22 h", "setting": "[4]; [9]", "result": 24500, "unit": "µg/mL"},
      {"measurement": "solubility at 22 h", "setting": "[4]; [10]", "result": 24100, "unit": "µg/mL"},
      {"measurement": "solubility at 22 h", "setting": "[4]; ethanol, organic solvent or mixture, Solubility in ethanol, ambient temperature", "result": 439, "unit": "µg/mL"},
      {"measurement": "solubility at 22 h", "setting": "[4]; [11]", "result": 32200, "unit": "µg/mL"},
      {"measurement": "Solubility in propylene glycol (PG)", "setting": "[4]; propylene glycol, ambient temperature, listed as Maleate Salt of Free Base Pritelivir", "result": 5230, "unit": "µg/mL"},
      {"measurement": "solubility at 22 h", "setting": "[4]; [8]", "result": "5000 to 6000", "unit": "µg/mL"}
    ]},
    {"compound": "N-methyl-N-(4-methyl-5-sulfamoylthiazol-2-yl)-2-(4-(pyridin-2-yl)phenyl)acetamide hemiethane-1,2-disulphonate [hemi ethane-1,2-disulfonate salt]", "values": [
      {"measurement": "% total peak area of the free base of pritelivir, dark control samples of the acidic solutions", "setting": "[6]", "result": 94.7, "unit": "%"}
    ]},
    {"compound": "C[C@H](Cn1cnc2c(N)ncnc21)OCP(=O)(O)O", "note": "[Tenofovir]", "values": [
      {"measurement": "IC50-values compared to the maleate salt", "setting": "[7]", "result": "significantly higher"}
    ]},
    {"compound": "Cc1nc(N(C)C(=O)Cc2ccc(-c3ccccn3)cc2)sc1S(N)(=O)=O.O=S(=O)(O)O", "note": "[sulfate salt, N-methyl-N-(4-methyl-5-sulfamoylthiazol-2-yl)-2-(4-(pyridin-2-yl)phenyl)acetamide Sulfate]", "values": [
      {"measurement": "% total peak area of the free base of pritelivir, dark control samples of the acidic solutions", "setting": "[6]", "result": 95.7, "unit": "%"},
      {"measurement": "solubility at 22 h", "setting": "[3]", "result": "175 to 606", "unit": "µg/mL"},
      {"measurement": "Stability in polyethylene glycol (in words)", "setting": "[2]", "result": "showed stability"},
      {"measurement": "solubility at 22 h", "setting": "[4]; organic solvent or mixture", "result": 12500, "unit": "µg/mL"}
    ]}
  ]
}
